pIC50: −log10 of the molar value.
What was measured:
[1] = Total clearance in cynomolgus monkey at 1 mg/kg, iv by LC/MS/MS method; type: ADME, organism-based, Macaca fascicularis; settings: in vivo
[2] = Intrinsic clearance in rat liver microsomes at 0.2 uM in presence of NADPH generating system by LC/MS/MS method; type: ADME; settings: read-out: CLH
Angiopoietin-1 receptor = Angiopoietin-1 receptor (Homo sapiens, UniProt Q02763); assay: Inhibition of TIE2 (unknown origin)
[3] = Cmax in Sprague-Dawley rat at 3 mg/kg, po by LC/MS/MS method; type: ADME, organism-based; parameters: dose 3 mg/kg, route oral; settings: in vivo
[4] = target: Receptor tyrosine-protein kinase erbB-2 (Homo sapiens, UniProt P04626); assay: Inhibition of HER2 (unknown origin)
[5] = AUC (0 to 24 hrs) in cynomolgus monkey at 3 mg/kg, po by LC/MS/MS method; type: ADME, organism-based, Macaca fascicularis; parameters: time < 24 hr, dose 3 mg/kg, route oral; settings: in vivo
[6] = AUC (0 to 24 hrs) in beagle dog at 3 mg/kg, po by LC/MS/MS method; type: ADME, organism-based, Canis lupus familiaris; parameters: time < 24 hr, dose 3 mg/kg, route oral; settings: in vivo
[7] = target: Voltage-gated inwardly rectifying potassium channel KCNH2 (Homo sapiens, UniProt Q12809)
Description: Inhibition of human ERG expressed in CHOK1 cells incubated for 10 mins by Rb efflux assay

[8] = target: Calcium/calmodulin-dependent protein kinase type II subunit alpha (Homo sapiens, UniProt Q9UQM7); assay: Inhibition of CaMK2a (unknown origin)
Chain of Calcium/calmodulin-dependent protein kinase type II subunit alpha (Q9UQM7 whole entry): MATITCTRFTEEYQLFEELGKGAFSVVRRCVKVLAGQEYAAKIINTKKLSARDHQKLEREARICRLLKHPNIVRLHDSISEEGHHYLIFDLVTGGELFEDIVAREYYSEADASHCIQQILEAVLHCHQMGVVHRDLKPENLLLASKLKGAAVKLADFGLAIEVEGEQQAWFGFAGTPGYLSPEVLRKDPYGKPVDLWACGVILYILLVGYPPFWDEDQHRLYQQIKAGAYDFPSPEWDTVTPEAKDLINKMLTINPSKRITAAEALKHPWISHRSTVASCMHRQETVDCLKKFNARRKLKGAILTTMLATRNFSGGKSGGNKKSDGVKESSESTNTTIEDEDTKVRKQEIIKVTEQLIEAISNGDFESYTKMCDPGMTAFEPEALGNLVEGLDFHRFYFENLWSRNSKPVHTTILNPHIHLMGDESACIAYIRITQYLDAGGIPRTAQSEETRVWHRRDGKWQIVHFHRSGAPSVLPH

Rattus norvegicus [9] = assay: (§1) Inhibition of allograft rejection in Lewis rat vascularized heterotopic cardiac transplantation model using ACI rat as cardiac donor assessed as mean survival time by measuring cardiac allograft function by daily palpation for 28 days at 20 mg/kg, po administered beginning on day of operation once daily for 14 consecutive days (reference value: 5 days); type: functional
[10] = target: Glycogen synthase kinase-3 beta (Homo sapiens, UniProt P49841); assay: Inhibition of GSK3beta (unknown origin)
Chain of Glycogen synthase kinase-3 beta (P49841 whole entry): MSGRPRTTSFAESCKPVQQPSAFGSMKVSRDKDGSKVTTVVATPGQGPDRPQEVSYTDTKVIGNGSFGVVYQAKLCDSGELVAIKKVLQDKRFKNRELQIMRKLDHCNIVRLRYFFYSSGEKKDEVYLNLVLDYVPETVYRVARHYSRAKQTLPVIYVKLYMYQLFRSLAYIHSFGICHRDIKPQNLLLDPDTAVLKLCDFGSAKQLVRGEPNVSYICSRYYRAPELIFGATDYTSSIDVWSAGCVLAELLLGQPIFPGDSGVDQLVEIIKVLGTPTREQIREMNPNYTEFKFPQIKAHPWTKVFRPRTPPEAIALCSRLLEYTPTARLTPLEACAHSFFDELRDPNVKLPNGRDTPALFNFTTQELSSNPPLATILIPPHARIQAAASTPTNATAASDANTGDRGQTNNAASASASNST

Ephrin type-A receptor 2 = Ephrin type-A receptor 2 (Homo sapiens, UniProt P29317); assay: Inhibition of EPHA2 (unknown origin)
[11] = AUC (0 to 24 hrs) in beagle dog at 1 mg/kg, iv by LC/MS/MS method; type: ADME, organism-based, Canis lupus familiaris; parameters: dose 1 mg/kg, time < 24 hr, route intravenous; settings: in vivo
[12] = target: Rho-associated protein kinase 1 (Homo sapiens, UniProt Q13464); assay: Inhibition of ROCK1 (unknown origin)
Chain of Rho-associated protein kinase 1 (Q13464 whole entry): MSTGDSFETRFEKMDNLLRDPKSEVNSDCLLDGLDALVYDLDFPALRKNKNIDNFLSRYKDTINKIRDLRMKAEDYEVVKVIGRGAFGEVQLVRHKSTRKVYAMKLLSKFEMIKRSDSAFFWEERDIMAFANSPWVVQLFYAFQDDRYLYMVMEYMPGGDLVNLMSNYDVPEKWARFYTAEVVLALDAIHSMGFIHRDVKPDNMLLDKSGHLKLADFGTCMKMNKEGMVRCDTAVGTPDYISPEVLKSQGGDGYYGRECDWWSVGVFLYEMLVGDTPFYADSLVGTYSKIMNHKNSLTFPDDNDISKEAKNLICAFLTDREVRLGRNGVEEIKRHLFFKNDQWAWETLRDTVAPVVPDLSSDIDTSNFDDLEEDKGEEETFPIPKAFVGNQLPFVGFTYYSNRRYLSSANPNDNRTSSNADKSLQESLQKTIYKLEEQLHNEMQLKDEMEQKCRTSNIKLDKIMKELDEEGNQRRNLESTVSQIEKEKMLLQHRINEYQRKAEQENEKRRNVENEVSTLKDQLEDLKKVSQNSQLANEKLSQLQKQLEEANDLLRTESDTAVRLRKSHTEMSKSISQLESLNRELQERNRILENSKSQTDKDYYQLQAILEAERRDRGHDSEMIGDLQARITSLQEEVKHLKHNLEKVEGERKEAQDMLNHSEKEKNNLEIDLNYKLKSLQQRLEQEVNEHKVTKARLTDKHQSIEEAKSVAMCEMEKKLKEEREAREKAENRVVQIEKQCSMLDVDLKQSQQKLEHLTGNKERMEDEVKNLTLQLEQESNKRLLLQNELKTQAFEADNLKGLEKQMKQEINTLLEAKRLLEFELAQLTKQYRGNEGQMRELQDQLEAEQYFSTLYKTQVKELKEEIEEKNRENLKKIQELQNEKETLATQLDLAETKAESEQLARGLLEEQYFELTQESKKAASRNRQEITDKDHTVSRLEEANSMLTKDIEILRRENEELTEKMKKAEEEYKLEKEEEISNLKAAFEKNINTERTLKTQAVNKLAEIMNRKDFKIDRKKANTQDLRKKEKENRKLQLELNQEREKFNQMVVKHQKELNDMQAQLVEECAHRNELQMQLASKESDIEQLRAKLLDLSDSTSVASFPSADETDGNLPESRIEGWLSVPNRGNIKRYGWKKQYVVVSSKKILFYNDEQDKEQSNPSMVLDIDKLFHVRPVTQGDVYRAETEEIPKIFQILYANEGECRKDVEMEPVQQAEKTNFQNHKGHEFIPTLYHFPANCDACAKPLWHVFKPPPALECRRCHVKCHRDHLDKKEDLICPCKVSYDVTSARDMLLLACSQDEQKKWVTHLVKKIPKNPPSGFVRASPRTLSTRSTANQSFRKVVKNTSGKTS

[13] = Cmax in beagle dog at 3 mg/kg, po by LC/MS/MS method; type: ADME, organism-based, Canis lupus familiaris; parameters: dose 3 mg/kg, route oral; settings: in vivo
[14] = Effective permeability of the compound at pH 7.4 by PAMPA method; type: physicochemical; settings: read-out: Peff
[15] = Oral bioavailability in Sprague-Dawley rat at 3 mg/kg by LC/MS/MS method; type: ADME, organism-based; settings: in vivo
[16] = Half life in Sprague-Dawley rat at 1 mg/kg, iv by LC/MS/MS method; type: ADME, organism-based; settings: in vivo
[17] = Tmax in Sprague-Dawley rat at 3 mg/kg, po by LC/MS/MS method; type: ADME, organism-based; settings: in vivo
[18] = target: Cyclin-dependent kinase 2/cyclin A (Homo sapiens, UniProt P24941); assay: Inhibition of CDK2/CycA (unknown origin); type: protein-complex assay
[19] = target: Interleukin-1 receptor-associated kinase 4 (Homo sapiens, UniProt Q9NWZ3); assay: Inhibition of IRAK4 (unknown origin)
Chain of Interleukin-1 receptor-associated kinase 4 (Q9NWZ3 whole entry): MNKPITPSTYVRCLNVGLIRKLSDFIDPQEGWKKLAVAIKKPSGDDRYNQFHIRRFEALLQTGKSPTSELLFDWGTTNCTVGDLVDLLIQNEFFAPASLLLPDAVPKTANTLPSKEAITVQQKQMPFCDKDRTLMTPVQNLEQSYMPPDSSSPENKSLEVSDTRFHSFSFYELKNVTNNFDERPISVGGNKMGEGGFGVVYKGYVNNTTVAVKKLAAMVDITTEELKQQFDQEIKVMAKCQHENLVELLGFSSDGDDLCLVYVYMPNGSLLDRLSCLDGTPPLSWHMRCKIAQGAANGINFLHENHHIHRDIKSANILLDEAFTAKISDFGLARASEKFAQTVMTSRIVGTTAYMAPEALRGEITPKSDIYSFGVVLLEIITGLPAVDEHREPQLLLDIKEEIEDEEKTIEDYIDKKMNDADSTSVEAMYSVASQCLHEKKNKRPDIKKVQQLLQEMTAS

[20] = Tmax in beagle dog at 3 mg/kg, po by LC/MS/MS method; type: ADME, organism-based, Canis lupus familiaris; settings: in vivo
[21] = target: Tyrosine-protein kinase CSK (Homo sapiens, UniProt P41240); assay: Inhibition of CSK (unknown origin)
Chain of Tyrosine-protein kinase CSK (P41240 whole entry): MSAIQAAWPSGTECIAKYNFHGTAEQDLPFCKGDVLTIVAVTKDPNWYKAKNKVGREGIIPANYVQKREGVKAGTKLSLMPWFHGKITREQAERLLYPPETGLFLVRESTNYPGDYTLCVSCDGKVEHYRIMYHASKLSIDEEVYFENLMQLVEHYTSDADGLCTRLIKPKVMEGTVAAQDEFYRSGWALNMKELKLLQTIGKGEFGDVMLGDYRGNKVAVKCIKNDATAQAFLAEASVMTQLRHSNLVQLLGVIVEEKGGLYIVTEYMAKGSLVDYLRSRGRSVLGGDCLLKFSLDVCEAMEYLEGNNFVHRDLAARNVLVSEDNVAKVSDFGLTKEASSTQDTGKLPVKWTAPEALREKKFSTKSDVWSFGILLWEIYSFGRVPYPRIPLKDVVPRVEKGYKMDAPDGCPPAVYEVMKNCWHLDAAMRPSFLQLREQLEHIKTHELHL

[22] = Volume of distribution at steady state in beagle dog at 1 mg/kg, iv by LC/MS/MS method; type: ADME, organism-based, Canis lupus familiaris; settings: in vivo, read-out: Vdss
[23] = Intrinsic clearance in cynomolgus monkey liver microsomes at 0.2 uM in presence of NADPH generating system by LC/MS/MS method; type: ADME, Macaca fascicularis; settings: read-out: CLH
[24] = Oral bioavailability in cynomolgus monkey at 3 mg/kg by LC/MS/MS method; type: ADME, organism-based, Macaca fascicularis; settings: in vivo
[25] = Inhibition of JAK1/JAK3 in Lewis rat splenocytes assessed as reduction in IL2-stimulated T-cell proliferation incubated for 3 days by alamar blue dye based fluorescence assay; settings: 72 h
[26] = target: Protein kinase C theta type (Homo sapiens, UniProt Q04759); assay: Inhibition of PKCtheta (unknown origin)
[27] = target: Casein kinase I isoform delta (Homo sapiens, UniProt P48730); assay: Inhibition of CK1delta (unknown origin)
[28] = target: Tyrosine-protein kinase JAK2 (Homo sapiens, UniProt O60674); assay: Inhibition of human JAK2 kinase domain using biotin-Lyn-substrate-2 as substrate incubated for 1 hr by ELISA method
[29] = Total clearance in Sprague-Dawley rat at 1 mg/kg, iv by LC/MS/MS method; type: ADME, organism-based; settings: in vivo
[30] = target: Tyrosine-protein kinase Tec (Homo sapiens, UniProt P42680); assay: Inhibition of TEC (unknown origin)
[31] = AUC (0 to 24 hrs) in Sprague-Dawley rat at 1 mg/kg, iv by LC/MS/MS method; type: ADME, organism-based; parameters: dose 1 mg/kg, time < 24 hr, route intravenous; settings: in vivo
[32] = target: Insulin-like growth factor 1 receptor (Homo sapiens, UniProt P08069); assay: Inhibition of IGF1R (unknown origin)
[33] = target: RAC-alpha serine/threonine-protein kinase (Homo sapiens, UniProt P31749); assay: Inhibition of AKT1 (unknown origin)
[34] = Cmax in cynomolgus monkey at 3 mg/kg, po by LC/MS/MS method; type: ADME, organism-based, Macaca fascicularis; parameters: dose 3 mg/kg, route oral; settings: in vivo
[35] = Tmax in cynomolgus monkey at 3 mg/kg, po by LC/MS/MS method; type: ADME, organism-based, Macaca fascicularis; settings: in vivo
Focal adhesion kinase 1 = Focal adhesion kinase 1 (Homo sapiens, UniProt Q05397); assay: Inhibition of FAK (unknown origin)
Chain of Focal adhesion kinase 1 (Q05397 whole entry): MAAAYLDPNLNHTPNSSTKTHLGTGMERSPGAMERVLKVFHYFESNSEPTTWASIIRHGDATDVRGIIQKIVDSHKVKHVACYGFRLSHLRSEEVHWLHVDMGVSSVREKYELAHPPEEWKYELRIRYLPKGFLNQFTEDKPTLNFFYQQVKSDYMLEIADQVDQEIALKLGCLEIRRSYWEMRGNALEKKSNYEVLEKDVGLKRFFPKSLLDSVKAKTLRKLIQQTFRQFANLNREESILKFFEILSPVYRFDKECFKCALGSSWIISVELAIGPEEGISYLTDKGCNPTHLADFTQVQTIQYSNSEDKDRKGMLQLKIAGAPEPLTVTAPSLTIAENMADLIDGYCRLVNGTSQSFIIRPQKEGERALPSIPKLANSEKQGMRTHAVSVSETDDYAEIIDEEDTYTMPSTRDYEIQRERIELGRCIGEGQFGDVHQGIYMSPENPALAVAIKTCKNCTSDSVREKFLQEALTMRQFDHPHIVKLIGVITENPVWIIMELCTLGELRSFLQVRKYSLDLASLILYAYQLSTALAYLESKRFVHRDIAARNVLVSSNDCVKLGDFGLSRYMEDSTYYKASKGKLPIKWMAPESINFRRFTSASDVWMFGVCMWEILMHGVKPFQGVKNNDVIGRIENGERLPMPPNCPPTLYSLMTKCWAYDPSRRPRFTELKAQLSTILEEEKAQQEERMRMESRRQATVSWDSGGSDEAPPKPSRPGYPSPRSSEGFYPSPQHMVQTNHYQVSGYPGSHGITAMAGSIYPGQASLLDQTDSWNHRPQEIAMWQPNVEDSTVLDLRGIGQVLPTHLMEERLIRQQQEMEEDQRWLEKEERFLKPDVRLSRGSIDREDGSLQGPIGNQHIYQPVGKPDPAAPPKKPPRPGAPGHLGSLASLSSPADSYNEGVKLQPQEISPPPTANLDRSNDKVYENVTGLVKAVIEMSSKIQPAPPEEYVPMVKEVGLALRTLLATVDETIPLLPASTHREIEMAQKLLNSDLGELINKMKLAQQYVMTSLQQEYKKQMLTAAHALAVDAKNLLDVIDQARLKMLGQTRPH

[36] = Volume of distribution at steady state in Sprague-Dawley rat at 1 mg/kg, iv by LC/MS/MS method; type: ADME, organism-based; settings: in vivo, read-out: Vdss
[37] = target: Tyrosine-protein kinase ITK/TSK (Homo sapiens, UniProt Q08881); assay: Inhibition of ITK (unknown origin)
[38] = target: High affinity nerve growth factor receptor (Homo sapiens, UniProt P04629); assay: Inhibition of TRKA (unknown origin)
Chain of High affinity nerve growth factor receptor (P04629 whole entry): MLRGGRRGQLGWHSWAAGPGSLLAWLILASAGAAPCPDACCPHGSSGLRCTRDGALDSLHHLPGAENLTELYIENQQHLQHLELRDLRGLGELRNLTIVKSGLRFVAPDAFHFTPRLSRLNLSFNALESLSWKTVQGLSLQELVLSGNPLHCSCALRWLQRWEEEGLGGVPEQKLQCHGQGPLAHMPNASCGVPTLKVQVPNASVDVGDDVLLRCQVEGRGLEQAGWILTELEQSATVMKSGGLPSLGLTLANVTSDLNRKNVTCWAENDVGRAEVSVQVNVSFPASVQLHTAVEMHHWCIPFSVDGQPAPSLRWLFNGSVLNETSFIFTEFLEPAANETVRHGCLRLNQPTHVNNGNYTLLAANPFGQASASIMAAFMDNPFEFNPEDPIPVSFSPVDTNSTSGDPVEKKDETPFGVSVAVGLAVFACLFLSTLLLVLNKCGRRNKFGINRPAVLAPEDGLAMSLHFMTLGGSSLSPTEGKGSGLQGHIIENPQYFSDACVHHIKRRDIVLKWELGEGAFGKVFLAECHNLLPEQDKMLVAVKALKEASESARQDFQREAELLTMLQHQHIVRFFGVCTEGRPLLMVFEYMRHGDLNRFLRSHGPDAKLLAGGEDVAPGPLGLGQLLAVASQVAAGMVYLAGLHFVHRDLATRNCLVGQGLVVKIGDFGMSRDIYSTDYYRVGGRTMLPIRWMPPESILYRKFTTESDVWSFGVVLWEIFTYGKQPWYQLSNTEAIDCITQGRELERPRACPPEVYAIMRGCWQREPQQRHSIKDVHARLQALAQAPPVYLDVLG

[39] = target: Mitogen-activated protein kinase kinase kinase 1 (Homo sapiens, UniProt Q13233); assay: Inhibition of MEKK1 (unknown origin)
[40] = Oral bioavailability in beagle dog at 3 mg/kg by LC/MS/MS method; type: ADME, organism-based, Canis lupus familiaris; settings: in vivo
[41] = target: Tyrosine-protein kinase SYK (Homo sapiens, UniProt P43405); assay: Inhibition of SYK (unknown origin)
Rattus norvegicus [42] = assay: as §1, with “days at 10 and 20 mg/kg,” for “days at 20 mg/kg,”; type: functional, organism-based
[43] = target: Ribosomal protein S6 kinase beta-1 (Homo sapiens, UniProt P23443); assay: Inhibition of p70S6K (unknown origin)
[44] = Half life in cynomolgus monkey at 1 mg/kg, iv by LC/MS/MS method; type: ADME, organism-based, Macaca fascicularis; settings: in vivo
[45] = Volume of distribution at steady state in cynomolgus monkey at 1 mg/kg, iv by LC/MS/MS method; type: ADME, organism-based, Macaca fascicularis; settings: in vivo, read-out: Vdss
[46] = target: Bone morphogenetic protein receptor type-1A (Homo sapiens, UniProt P36894); assay: Inhibition of BMPR1A (unknown origin)
[47] = Total clearance in beagle dog at 1 mg/kg, iv by LC/MS/MS method; type: ADME, organism-based, Canis lupus familiaris; settings: in vivo

## N#Cc1ccc(N2CC[C@@H](Nc3c(C(N)=O)cnc4[nH]ccc34)[C@@H](F)C2)nc1
[1]
  clearance: 3.8 mL/min/kg
[2]
  CLint scaled at 0.2 µM: 27.5 mL/min/kg
Angiopoietin-1 receptor
  pIC50: < 6.00
[3]
  Cmax: 633 ng/mL
[4]
  pIC50: < 6.00
[5]
  AUC(0-t) at 24 h: 8690 ng·h/mL
[6]
  AUC(0-t) at 24 h: 8300 ng·h/mL
[7]
  pIC50: < 4.00
[8]
  pIC50: 6.00
Rattus norvegicus [9]
  MST: 22 days
[10]
  pIC50: 6.01
Ephrin type-A receptor 2
  pIC50: < 6.00
[11]
  AUC(0-t) at 24 h: 5650 ng·h/mL
[12]
  pIC50: 6.72
[13]
  Cmax: 666 ng/mL
[14]
  Papp: 9 ×10⁻⁶ cm/s
[15]
  bioavailability: 70.7%
[16]
  half-life: 3 h
[17]
  Tmax: 3.3 h
[18]
  pIC50: 6.23
[19]
  pIC50: < 6.00
[20]
  Tmax: 2.7 h
[21]
  pIC50: < 6.00
[22]
  Vd: 1 L/kg
[23]
  CLint scaled at 0.2 µM: 9.9 mL/min/kg
[24]
  bioavailability: 64.3%
[25]
  pIC50: 7.96
[26]
  pIC50: 6.49
[27]
  pIC50: < 6.00
[28]
  pIC50: 8.49
[29]
  clearance: 5.3 mL/min/kg
[30]
  pIC50: < 6.00
[31]
  AUC(0-t) at 24 h: 3200 ng·h/mL
[32]
  pIC50: < 6.00
[33]
  pIC50: < 6.00
[34]
  Cmax: 684 ng/mL
[35]
  Tmax: 5.3 h
Focal adhesion kinase 1
  pIC50: < 6.00
[36]
  Vd: 1.1 L/kg
[37]
  pIC50: < 6.00
[38]
  pIC50: 6.33
[39]
  pIC50: < 6.00
[40]
  bioavailability: 49.1%
[41]
  pIC50: < 6.00
Rattus norvegicus [42]
  inhibition: Dose-dependent effect
[43]
  pIC50: < 6.00
[44]
  half-life: 5.4 h
[45]
  Vd: 1.5 L/kg
[46]
  pIC50: < 6.00
[47]
  clearance: 3 mL/min/kg

From ChEMBL document CHEMBL3593212, “Synthesis and evaluation of novel 1H-pyrrolo[2,3-b]pyridine-5-carboxamide derivatives as potent and orally efficacious immunomodulators targeting JAK3” (Bioorg Med Chem, 2015)
